In PMC6423518 (Bioorganic & medicinal chemistry letters, 2018):
“Also recorded” adds a separate entry of the source.

Test system: MDA-MB-231 cells
Test: Acridine orange/ethidium bromide
Format: cell-based, human
Conditions: fluorescence microscopy

COc1cc(/C=C/C(=O)c2c3[nH]c4ccccc4c3cc[n+]2Cc2ccccc2)cc(OC)c1OC.[Br-] [Compound 13g]
Cell death / apoptosis by AO/EB staining: induces apoptosis; also recorded: markedly induced cell death

COc1cccc2c1C(=O)c1c(O)c3c(c(O)c1C2=O)C[C@@](O)(C(=O)CO)C[C@@H]3O[C@H]1C[C@H](N)[C@H](O)[C@H](C)O1 [Doxorubicin, reference compound]
Cell death / apoptosis by AO/EB staining: morphological changes characteristic of apoptotic cells formation
